Reference: patent US10633423B2, “IL-6-binding polypeptide complex” (AFFIBODY AB, priority 2014, dated 2020)
Values belong to the substance of their own block, whether it stands above or below them.

What was measured:
[1] = tested on: IL-6/TNF-dependent proliferation of TF-1 cells; test: TF-1 cell assay, stimulated with both IL-6 and TNF (Example 11); type: cell-based, human; conditions: TF-1 cells simultaneously stimulated with IL-6 and TNF
Method: TF-1 cells were cultured in RPMI1640 with L-glut (Lonza) supplemented with 10% FCS (Gibco), Pen-Strep (Lonza) and 2 ng/ml rhGM-CSF (R&D Systems). Prior to use, the cells were washed twice in RPMI1640 in the absence of rhGM-CSF. Cells were then counted and dispensed into 96 well flat bottomed plates at a density of 4×10^4 cells per well. […] The samples were incubated in the presence of either 0.099 nM rhIL-6 (R&D Systems, cat. no. 206-IL/CF), 0.023 nM rhTNF (R&D Systems, cat. no. 210-TA) or a combination of both cytokines. The pre-mixtures were transferred to wells containing TF-1 cells which were incubated for 72 h at 37° C. in a humidified 5% CO2 atmosphere. During the last four hours of incubation, 10 μl of CCK-8 (Fluka, Sigma Aldrich) was added per well to determine the number of proliferating cells. The absorbance was measured at 450 nm (Abs450) using a microplate reader (VICTOR^3, Perkin Elmer). The data on cell growth was assessed by non-linear regression to a four-parameter dose-response curve, and the half maximal inhibitory concentration (IC50) was determined using GraphPad Prism program. The inhibition of IL-6/TNF-dependent proliferation of TF-1 cells by the inhibitory molecules was as Abs450 minus control wells that contained cells but no IL-6.

[2] = tested on: IL-6 trans-signaling in human umbilical vein endothelial cells (HUVECs); test: HUVEC trans-signaling assay, MCP-1 readout; type: cell-based; conditions: Z variants fused to ABD variant PP013
Method: To address the trans-signaling pathway, a second assay was used. Herein, human umbilical vein endothelial cells (HUVECs) were stimulated with hIL-6 and soluble hIL-6Rα and the readout was the production of monocyte chemoattractant protein-1 (MCP-1). HUVECs (Lonza) were grown in EGM-2 bullet kit media (Lonza) and passaged in culture no more than eight times. Cells were grown until 75% confluence before use. Cells were detached using trypsin/EDTA (Lonza), resuspended and washed once in fresh medium. Next, cells were counted and dispensed into 96 well flat bottom plates at a density of 2×10^4 cells per well. Cells were cultured overnight at 37° C. in a humidified 5% CO2 atmosphere. […] The pre-mixed solutions with the test molecules and hIL-6/hIL-6Rα were then transferred to wells containing HUVECs, which were incubated for 24 h at 37° C. in a humidified 5% CO2 atmosphere. Cell free supernatant was collected after the incubation period and human MCP-1 levels were determined by sandwich ELISA using the MCP-1 Duoset ELISA development system (R&D Systems).
Half area 96-well ELISA plates were coated with anti-MCP-1 capture antibody (R&D Systems) at a concentration of 1 μg/ml. Plates were incubated overnight at 4° C., washed twice in tap water and blocked for 1 h in PBSC. […] The absorbance was measured at 450 nm using a microplate reader (Victor^3, Perkin Elmer).

TNF = molecular target: T1, TNF (Homo sapiens, UniProt P01375); test: ELISA binding activity of matured complexes, TNF (Example 13); conditions: approximate; plates coated with 0.5 μg/ml TNF
T1 construct: purchased R&D Systems
Method: The binding of TNF and IL-6 targeting complexes was analyzed in an ELISA assay. Half-area 96-well ELISA plates were directly coated at 4° C. overnight with 0.5 μg/ml of TNF or IL-6 in PBS buffer and the wells were blocked with 100 μl of 3% skim milk/PBS (137 mM NaCl, 2.7 mM KCl, 10 mM Na2HPO4, 1.8 mM KH2PO4) for 1 h at RT. Next, 30 μl of serially diluted complexes and control antibodies from a starting concentration of 1 μg/ml in 3% skim milk/PBS were added to each well. The plates were incubated for 2 h at RT followed by washing four times with PBST 0.05%. HRP conjugated anti-human IgG Fc secondary antibody (Pierce, cat. no. 31423) was diluted 1:5000 in 3% skim milk/PBS and added to the wells followed by 1 h incubation. After washing as described above, 30 μl ImmunoPure TMB substrate (Pierce, cat. no. 34014) was added to the wells and the plates were treated according to the manufacturer's recommendations. Adalimumab (Abbvie, LOT4435XH04) was used as a positive control for the TNF binding activity and as a negative control for the IL-6 binding activity. Furthermore, an irrelevant IgG (Jackson Immunoresearch, cat. no. Jac-009-000-003) was included as a negative control in both assays.

[3] = RA patients, monotherapy, Gabay et al 2013; cited from earlier work

T1 sequence (P01375 77-233 limits assumed): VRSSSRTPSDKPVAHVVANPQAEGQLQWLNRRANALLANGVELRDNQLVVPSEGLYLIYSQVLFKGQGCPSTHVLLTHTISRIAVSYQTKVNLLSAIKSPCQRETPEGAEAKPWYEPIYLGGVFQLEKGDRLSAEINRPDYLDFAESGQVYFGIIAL

Substance: His6-Z04726: negative control Z variant Z04726 (SEQ ID NO:1553) with N-terminal His6-tag [reference compound]
- blocking of TF-1 cell growth [1]: No effect

Substance: Z03638: control Z variant binding an irrelevant target; tested in fusion with ABD variant PP013 [reference compound]
- inhibition of IL-6 mediated trans-signaling [2]: did not

- EC50 (TNF): 0.077 nM
Substance: Adalimumab

Substance: tocilizumab
- reduction of RA-related symptoms [3]: more effective than adalimumab
